One test deals with HCV replicon. Briefly: HCV replicon FRET assay. The test is classed as cell-based. Particulars: Hepatitis C virus, Table 1a; FRET assay; read-out: EC50*. The method in brief:
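HCV replicon cells, with or without Renilla luciferase reporter, incubated with titrated compounds at 37 °C; Alamar blue read for cytotoxicity. NS3 protease activity read from lysates with 20 μM EDANS/DABCYL FRET peptide (340/490 nm, kinetic), or by Dual-Glo luciferase. Background from highest protease-inhibitor wells; EC50 = 50% signal reduction.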
For orientation: Replicon systems follow genome replication, usually without infectious particles.

Another test concerns the target T1, HCV NS5B (Hepatitis C virus genotype 1b, UniProt Q9WMX2).
T1 construct: The protein was expressed with an 18 amino acid C-terminal truncation to enhance the solubility; made in house; host or cells: E. coli BL21 (DE3), pET21a
Put plainly: HCV NS5B RdRp enzyme assay (preincubation protocol). The test is classed as biochemical. Particulars: Table 1a, read-out: IC50*. A digest of the protocol:
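C-terminally truncated (Δ18) genotype 1b NS5B from E. coli, 14 nM, added to compound, then polyA template (0.2 nM), 3H-UTP (0.29 μM) and oligo-dT12 primer precaptured on streptavidin SPA beads. 4 h at 30 °C, pH 7.5, 2% DMSO; SPA readout; IC50 from seven concentrations by logistic fit.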

Among the data in patent publication US7473688B2, “Indolobenzazepine HCV NS5B inhibitors” (Bristol-Myers Squibb Company, priority 2005, dated 2009) are EC50 and IC50 values, retold here.

T1 sequence (Q9WMX2 2420-2992): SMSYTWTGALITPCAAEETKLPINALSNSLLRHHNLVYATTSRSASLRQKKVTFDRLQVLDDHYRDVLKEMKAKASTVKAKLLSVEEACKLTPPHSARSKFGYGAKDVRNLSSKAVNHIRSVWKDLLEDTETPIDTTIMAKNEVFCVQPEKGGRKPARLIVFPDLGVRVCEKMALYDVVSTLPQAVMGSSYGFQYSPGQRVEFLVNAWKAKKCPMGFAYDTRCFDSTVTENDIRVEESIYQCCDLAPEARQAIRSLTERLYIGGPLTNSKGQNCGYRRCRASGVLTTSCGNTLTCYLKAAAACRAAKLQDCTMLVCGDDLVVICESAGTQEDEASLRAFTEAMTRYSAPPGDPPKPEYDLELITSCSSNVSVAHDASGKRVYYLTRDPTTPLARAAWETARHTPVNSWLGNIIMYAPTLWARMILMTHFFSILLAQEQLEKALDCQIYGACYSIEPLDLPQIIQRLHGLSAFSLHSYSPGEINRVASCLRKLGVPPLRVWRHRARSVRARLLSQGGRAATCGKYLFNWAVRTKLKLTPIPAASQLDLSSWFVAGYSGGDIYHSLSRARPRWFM

For `COc1ccc2c(c1)CC(C(=O)N(C)CC(=O)N1CCOCC1)Cn1c-2c(C2CCCCC2)c2ccc(C(=O)NS(=O)(=O)N(C)C)cc21` (stereo not shown), the EC50 in the test with HCV replicon fell in the range of 0.03 to 1 µM. Also, on HCV NS5B, the IC50 was below 0.02 µM.

For `COC(=O)CCC(=O)CNC(=O)C1=Cc2cc(OC)ccc2-c2c(C3CCCCC3)c3ccc(C(=O)OC)cc3n2C1`, the EC50 with HCV replicon is 0.03 to 1 µM. Also, the half-inhibitory concentration (IC50) on HCV NS5B was 0.01 to 1 µM.

As to `COc1ccc2c(c1)CC(NC(=O)N1C[C@@H](C)O[C@@H](C)C1)Cn1c-2c(C2CCCCC2)c2ccc(C(=O)NS(=O)(=O)N(C)C)cc21` (stereo partly shown), the EC50 in the test on HCV replicon was 0.03 to 1 µM. The IC50 at HCV NS5B was in the range of 0.01 to 1 µM.

Turning to `COC(=O)c1ccc2c(C3CCCCC3)c3n(c2c1)CC(C(=O)NC1CCOCC1)=Cc1cc(OC)ccc1-3`, the EC50 in the test with HCV replicon was in the range of 0.03 to 1 µM. Also, the IC50 on HCV NS5B lay in the range of 0.01 to 1 µM.

For `COc1ccc2c(c1)C=C(C(=O)N(C)CCN(C)C(C)=O)Cn1c-2c(C2CCCCC2)c2ccc(C(=O)NS(=O)(=O)N(C)C)cc21`, the EC50 with HCV replicon is 0.03 to 1 µM. The IC50 at HCV NS5B fell in the range of 0.01 to 1 µM.

On to `COc1ccc2c(c1)C=C(C(=O)N1CC(OC)C1)Cn1c-2c(C2CCCCC2)c2ccc(C(=O)NS(=O)(=O)N(C)C)cc21`, for which the EC50 in the test with HCV replicon lay in the range of 0.03 to 1 µM. Besides, the IC50 at HCV NS5B was below 0.02 µM.

As to `COc1ccc2c(c1)C=C(C(=O)N(C)CC(=O)N1CCC1)Cn1c-2c(C2CCCCC2)c2ccc(C(=O)NS(=O)(=O)N(C)C)cc21`, the half-maximal effective concentration (EC50) with HCV replicon lay in the range of 0.03 to 1 µM. In addition, the IC50 on HCV NS5B fell in the range of 0.01 to 1 µM.

On to `CCN(C)C(=O)CN(C)C(=O)C1=Cc2cc(OC)ccc2-c2c(C3CCCCC3)c3ccc(C(=O)NS(=O)(=O)N(C)C)cc3n2C1`, for which the EC50 in the test with HCV replicon lay in the range of 0.03 to 1 µM. Besides, the concentration for half-maximal inhibition (IC50) on HCV NS5B was 0.01 to 1 µM.

Take `COc1ccc2c(c1)C=C(C(=O)N(C)CC(=O)N1CC(OC)C1)Cn1c-2c(C2CCCCC2)c2ccc(C(=O)NS(=O)(=O)N(C)C)cc21`: in the test on HCV replicon, the EC50 lay within 0.03 to 1 µM. Moreover, the IC50 on HCV NS5B is 0.01 to 1 µM.

For the compound `COc1ccc2c(c1)CC(NC(=O)N1C[C@@H](C)N(C(C)=O)[C@@H](C)C1)Cn1c-2c(C2CCCCC2)c2ccc(C(=O)NS(=O)(=O)N(C)C)cc21` (stereo partly shown), in the test on HCV replicon, the EC50 is 0.03 to 1 µM. Also, the IC50 at HCV NS5B fell in the range of 0.01 to 1 µM.

Consider `COc1ccc2c(c1)CC(NC(=O)N(C)CC(=O)N1CCOCC1)Cn1c-2c(C2CCCCC2)c2ccc(C(=O)NS(=O)(=O)N(C)C)cc21` (stereo not shown), for which the EC50 with HCV replicon fell in the range of 0.03 to 1 µM. The IC50 on HCV NS5B fell in the range of 0.01 to 1 µM.

On to `COc1ccc2c(c1)CC(NC(=O)N1CCC(N3CCOCC3)CC1)Cn1c-2c(C2CCCCC2)c2ccc(C(=O)NS(=O)(=O)N(C)C)cc21` (stereo not shown), for which the EC50 in the test on HCV replicon was in the range of 0.03 to 1 µM. Moreover, the IC50 at HCV NS5B was in the range of 0.01 to 1 µM.

`COc1ccc2c(c1)CC(NC(=O)N1CCOC(CN(C)C)C1)Cn1c-2c(C2CCCCC2)c2ccc(C(=O)NS(=O)(=O)N(C)C)cc21` (stereo not shown): the EC50 in the test on HCV replicon lay within 0.03 to 1 µM. In addition, the IC50 at HCV NS5B lay within 0.01 to 1 µM.

For `COc1ccc2c(c1)CC(NC(=O)N1CCOC(CN3CCCC3)C1)Cn1c-2c(C2CCCCC2)c2ccc(C(=O)NS(=O)(=O)N(C)C)cc21` (stereo not shown), in the test with HCV replicon, the EC50 was in the range of 0.03 to 1 µM. For the same compound, the IC50 on HCV NS5B was in the range of 0.01 to 1 µM.

For `COc1ccc2c(c1)CC(NC(=O)N1CCN(C(N)=O)CC1)Cn1c-2c(C2CCCCC2)c2ccc(C(=O)NS(=O)(=O)N(C)C)cc21` (stereo not shown), the EC50 with HCV replicon was in the range of 0.03 to 1 µM. Further, the IC50 on HCV NS5B lay within 0.01 to 1 µM.

Turning to `COc1ccc2c(c1)CC(NC(=O)N1CCN(CC(=O)NC(C)C)CC1)Cn1c-2c(C2CCCCC2)c2ccc(C(=O)NS(=O)(=O)N(C)C)cc21` (stereo not shown), the EC50 with HCV replicon is 0.03 to 1 µM. Also, the IC50 at HCV NS5B lay in the range of 0.01 to 1 µM.

As to `CCN(C(C)=O)C1CCN(C(=O)NC2Cc3cc(OC)ccc3-c3c(C4CCCCC4)c4ccc(C(=O)NS(=O)(=O)N(C)C)cc4n3C2)C1` (stereo not shown), in the test with HCV replicon, the EC50 was 0.03 to 1 µM. Also, on HCV NS5B, the IC50 was in the range of 0.01 to 1 µM.

On to `COc1ccc2c(c1)CC(NC(=O)N1CCS(=O)(=O)CC1)Cn1c-2c(C2CCCCC2)c2ccc(C(=O)NS(=O)(=O)N(C)C)cc21` (stereo not shown), for which, in the test on HCV replicon, the EC50 was 0.03 to 1 µM. Moreover, the IC50 at HCV NS5B fell in the range of 0.01 to 1 µM.

For `COc1ccc2c(c1)CC(NC(=O)N1C[C@@H]3C[C@H]1CO3)Cn1c-2c(C2CCCCC2)c2ccc(C(=O)NS(=O)(=O)N(C)C)cc21` (stereo partly shown), in the test on HCV replicon, the EC50 is 0.03 to 1 µM. On HCV NS5B, the IC50 fell in the range of 0.01 to 1 µM.

`COc1ccc2c(c1)CC(NC(=O)NCCN1CCOCC1)Cn1c-2c(C2CCCCC2)c2ccc(C(=O)NS(=O)(=O)N(C)C)cc21` (stereo not shown): in the test with HCV replicon, the EC50 fell in the range of 0.03 to 1 µM. Also, the IC50 on HCV NS5B was in the range of 0.01 to 1 µM.

As for `COc1ccc2c(c1)CC(NC(=O)N1CCC(N3CCCC3)CC1)Cn1c-2c(C2CCCCC2)c2ccc(C(=O)NS(=O)(=O)N(C)C)cc21` (stereo not shown), the EC50 with HCV replicon lay in the range of 0.03 to 1 µM. Further, at HCV NS5B, the IC50 lay in the range of 0.01 to 1 µM.

For `COc1ccc2c(c1)CC(NC(=O)N1CCN(S(C)(=O)=O)CC1)Cn1c-2c(C2CCCCC2)c2ccc(C(=O)NS(=O)(=O)N(C)C)cc21` (stereo not shown), the EC50 in the test on HCV replicon was 0.03 to 1 µM. For the same compound, the IC50 on HCV NS5B was 0.01 to 1 µM.

Take `COc1ccc2c(c1)CC(NC(=O)N1CCN(C(C)=O)CC1)Cn1c-2c(C2CCCCC2)c2ccc(C(=O)NS(=O)(=O)N(C)C)cc21` (stereo not shown): in the test on HCV replicon, the EC50 lay in the range of 0.03 to 1 µM. The IC50 on HCV NS5B lay in the range of 0.01 to 1 µM.

A word on the EC50: it is the concentration at which the effect is half-maximal. By IC50 is commonly meant the midpoint of a concentration-inhibition curve.
